system: K. pneumoniae; assay: Antimicrobial activity (MIC) of polymers and antibiotics individually; assay type: cell-based; conditions: Klebsiella pneumoniae, agents individually
Excerpt: As depicted in FIGS. 1-5, “m” can represent a number that is, for example, greater than or equal to 5 and less than or equal to 30, and/or “n” can represent a number that is, for example, greater than or equal to 0 and less than or equal to 25. Additionally, the “*” can represent: one or more repetitions of all and/or parts of the structures shown, one or more hydrogens, an alkyl group, an aryl group, a combination thereof, and/or the like. Unless otherwise stated, materials utilized to facilitate the experiments, tables, charts, diagrams, and/or the like described herein can be acquired from the following sources. The bacteria Staphylococcus aureus (“S. aureus”, ATCC 29737), Escherichia coli (“E. coli”, ATCC 25922), Pseudomonas aeruginosa (“P. aeruginosa”, ATCC 9027), Candida albicans (“C. albicans”, ATCC 10231), and/or Klebsiella pneumoniae (“K. pneumoniae”, ATCC700603) were acquired from American Type Culture Collection (“ATCC”).
Further, Table 1, presented below, can depict the antimicrobial activity of the guanidinium functionalized polylysine polymers and/or antibiotics individually with regards to K. pneumoniae.

Row | MIC [µg/mL] | Structure (SMILES)
1 | 4 to 8 | CO/N=C(\C(=O)N[C@@H]1C(=O)N2C(C(=O)O)=C(CSC(=O)c3ccco3)CS[C@H]12)c1csc(N)n1 [Ceftiofur]
2 | 15.6 | CN(C)[C@@H]1C(O)=C(C(N)=O)C(=O)[C@@]2(O)C(O)=C3C(=O)c4c(O)ccc(Cl)c4[C@@](C)(O)[C@H]3C[C@@H]12 [Chlortetracycline]
3 | 1 | CCN1CCN(c2cc3c(cc2F)c(=O)c(C(=O)O)cn3C2CC2)CC1 [Enrofloxacin]
4 | 31.3 | CO[C@H]1/C=C/O[C@@]2(C)Oc3c(C)c(O)c4c(O)c(c(/C=N/N5CCN(C)CC5)c(O)c4c3C2=O)NC(=O)/C(C)=C\C=C\[C@H](C)[C@H](O)[C@@H](C)[C@@H](O)[C@@H](C)[C@H](OC(C)=O)[C@@H]1C [Rifampicin]

From patent US11725107B2, “Polylysine polymers with antimicrobial and/or anticancer activity” (International Business Machines Corporation, priority 2019, dated 2023)
